These results are taken from article PMC11096368, “Transcriptomic signature, bioactivity and safety of a non-hepatotoxic analgesic generating AM404 in the midbrain PAG region” (Scientific Reports, 2024).

Common to all, as to assay type: in vivo
Data set [1] relates to CD1 or C57BL/6 mice. Put plainly: Acetic acid-induced abdominal writhing assay (visceral pain). Particulars: for ED50: Mus musculus, equimolar dosing; for Analgesia in acetic acid-induced writhing assay: high dose (100 mg/kg), all experimental cohorts. The source says: The investigators were blinded till the completion of all the experiments. To ensure objectivity, investigators were blinded for the acetic acid and tail flick experiments. In the CFA/von Frey and Hargreaves assays, one investigator did the drug pre-treatments, and another investigator at another location who was not aware of the treatments conducted the behavioral testing. Moreover, these studies used the eVF device that electronically registers the grams of force necessary to elicit paw withdrawal, eliminating bias that confounded older versions of this test in which an investigator used a series of individual von Frey microfilaments to determine paw withdrawal thresholds. Six separate experimenters were involved in the data acquisition for behavioral testing, and another separate investigator performed all the statistical analyses using GraphPad Prism Version 9.1.2. Statistical significance was determined by p < 0.05; one-way ANOVA followed by Sidak’s multiple comparisons post hoc test. Mixed-gender experiments were powered to test for gender effects, and different ages of rodents were also included for the experiments – young (2 months) and aged (20 months) to tease out whether there are any effects of age-related changes in nociceptive sensitivity under naïve, and inflammatory pre-clinical rodent pain models. For the aged rats and mice, we could only obtain male Sprague–Dawley rats and male C57BL/6 mice of 20 months old from all commercial animal vendors and from the National Institute of Aging (NIA). So, only these rodents were used for the older animal experimental cohort. Old female rats and mice were not available at the time when these experiments were conducted. For ED50 calculation, dose–response curves were calculated with regression analysis and log transformation using GraphPad Prism 9.1.2.
In this model of visceral pain, abdominal contraction (writhing), in which contraction of the abdominal muscles and stretching of the hind limbs is induced in mice in response to an ip injection of 0.4% acetic acid at a dose of 10 mL/kg 25 min after drug administration, is assessed. Specifically, the number of writhes is counted for 10 min, beginning 5 min after acetic acid injection. […] CD1 (young male and female) or C57BL/6 (aged male) mice were used. For the abdominal writhing assays, we used n = 35 aged male mice, n = 70 young male mice, and n = 70 young female mice.

A short description of data set [2]: LC–MS/MS identification of serum NAPQI. The following applies: 600 mg/kg, CD-1 mice. How it is done:
[…] (NAPQI) was extracted from the serum by adding 3 volumes of ethyl-acetate to 1 volume of serum and storing them on ice for 30 min, followed by centrifugation at 3000g for 30 min. Afterward, the supernatant was transferred into mass spectrometry vials and dried under N2 gas. The serum was then washed with another 3 volumes of ethyl-acetate, and the supernatant was added back to the same mass spectrometry vial, followed by evaporation under a stream of N2 gas. The sample was re-suspended with 50 µl of 1:1 MeOH:H2O for LC–MS/MS experimentation. The mass spectrophotometer was operated in multiple reaction monitoring (MRM) mode using positive ion electrospray. NAPQI was detected by monitoring the m/z transition 150.3 → 108.1. Pure NAPQI analytical standard (10 ng/mL) obtained from Cayman Chemical (Ann Arbor, MI) was used to characterize the full fragmentation pattern of NAPQI and determine the likely fragments.

Data set [3] deals with Sprague–Dawley rats. Briefly: CFA-induced inflammatory pain / Hargreaves thermal sensitivity assay. The following applies: high dose (100 mg/kg). The source says: In these same cohorts of animals, we simultaneously measured their thermal nociception to hyperalgesia with the Hargreaves test using the plantar test apparatus (Ugo Basile 37,570). In this experimental setup, the rodents are placed in plastic cages on top of a glass surface, and their hind paws are subjected to an infrared heat stimulus. One hind paw at a time is stimulated with the light source (noxious stimuli) until the animal retracts the paw from the glass surface because of the stimulus. Baseline withdrawal thresholds (latency) of both the right and left paws were recorded, and animals were assigned to different treatment groups so that each group had approximately equal withdrawal threshold averages in both paws. After baseline testing, treated animals received subcutaneous plantar injection (150 μl) of 50% CFA into the left hind paw, while control animals received a plantar injection (150 µl) of 0.9% NaCl into their left hind paw. CFA induces inflammation, resulting in a left hind paw that is hypersensitive to the thermal stimulus, while the right hind paw serves as a within-subject baseline for each animal. To obtain Hargreaves withdrawal latency recordings, each animal was placed in an individual plastic observation compartment on a glass platform, which provided access to the plantar surface of the hind paws from underneath. After acclimation to the environment for 30 min, thermal hypersensitivity was assessed by stimulating the mid-plantar area of each hind paw with a bright light source attached to the meter (Ugo Basile 37,570) until animals withdrew the paw from the surface. The withdrawal threshold was defined as the average time (s) required for the rat to withdraw the stimulated paw. A brisk withdrawal of the paw (often followed by a sustained retraction and/or licking) was considered a positive response, but paw withdrawals due to locomotion or weight shifting were not counted. The Hargreaves studies were conducted with the plantar stimulation device that automatically registers the time (s) necessary to elicit paw withdrawal in order to eliminate bias in determining paw withdrawal thresholds. A cutoff of 20 s is pre-programmed so that the light source shuts off at that maximal period so as to not induce any burns on the plantar surface of the rodents. The Hargreaves test permits measurement of ipsilateral and contralateral heat thresholds, allowing each animal to serve as its own internal control in unilateral pain models. In addition, the Hargreaves test enables quantification of heat thresholds in unrestrained animals, reducing the likelihood of stress-induced responses.

In data set [4] the test system is CD-1 male mice. Put plainly: LPS fever induction antipyresis assay. The following applies: 75 mg/kg PO, LPS 100 μg/kg ip, n = 20. As to the method:
Antipyresis experiments were carried out with n = 60 CD-1 male mice weighing between 45 and 50 g. All mice were kept in a 12-h day/12-h night cycle with free access to food and water ad libitum. After habituating and acclimating the mice for a week, each mouse was briefly anesthetized for 1 min with 1% isoflurane and implanted subcutaneously a transmitter probe that records core body temperature – Implantable Programmable Temperature Transponder (IPTT-300) by Bio Medic Data Systems (BMDS), DE, USA. The mice were allowed to recover for at least one week from the surgery before any recordings were made and observed in their home cages prior to pyrogen challenge for inducing fever. Temperatures were recorded using the BMDS DAS-8027-IUS data reading system.
All mice were fasted overnight (15 h) with free access to water ad libitum prior to the pyrogen challenge. For the induction of fever, LPS from E. coli (100 μg/kg, 0111:B4) (MilliporeSigma, Billerica, MA, USA) was used. Mice received either LPS in 0.9% saline (sterile) (vehicle) or just 0.9% saline as an intraperitoneal (ip) injection.
All drugs and vehicle (10% DMSO: 10% labrasol :80% PEG400) were administered by oral gavage, PO dosing. Each dosing volume was ~ 0.3–0.4 mL per mouse. […] We chose this dose to record antipyretic effect in a low dose that doesn’t cause hypothermia in mice.

Setting [5] is: read-out: ED50 Acetic acid writhing Assay (Mice), Aged (Male).
The mark [6] stands for this setting: read-out: ED50 Acetic acid writhing Assay (Mice), Young (Female).
Where [7] appears, read: read-out: ED50 Acetic acid writhing Assay (Mice), Young (Male).
[8] abbreviates: young male and young female rats.

Entries after “also recorded” stand apart in the source; their conditions may differ. Read-outs that look alike come from different tables or passages of the source.

With `CC(=O)Nc1ccc(O)cc1` [ApAP, acetaminophen, reference compound], the ED50 was determined as 71.6 µmol/kg in data set [1] (setting [5]), 661 µmol/kg in data set [1] (setting [6]) and 75.8 µmol/kg in data set [1] (setting [7]). Also, in data set [1], the “Analgesia in acetic acid-induced writhing assay” value is “significant analgesia”. Besides, the “Formation of the hepatotoxic metabolite NAPQI (serum)” value in data set [2] is “a NAPQI peak is seen; also recorded: significantly enhanced; also recorded: NAPQI peak appears”. The “Analgesia in Hargreaves assay (paw withdrawal latencies)” value in data set [3] (aged male rats) and in data set [3] (setting [8]) was “significant analgesia” each time. Besides, in data set [4], the “Antipyresis, LPS fever” value is listed as “comparable antipyresis”.

On to `CCN(CC)C(=O)c1ccccc1S(=O)(=O)NCC(=O)Nc1ccc(O)cc1` [SRP-001, N,N-diethyl-2-[[2-(4-hydroxyanilino)-2-oxo-ethyl]sulfamoyl]benzamide], for which the ED50 is 22.1 µmol/kg in data set [1] (setting [5]), 237 µmol/kg in data set [1] (setting [6]) and 31.1 µmol/kg in data set [1] (setting [7]). Moreover, the “Analgesia in acetic acid-induced writhing assay” value in data set [1] is “significant analgesia”. Further, in data set [2], the “Formation of the hepatotoxic metabolite NAPQI (serum)” value is recorded as “lack of formation of the toxic quinonimine metabolite NAPQI; also recorded: does not produce the hepatotoxic metabolite; also recorded: lack of production of NAPQI”. Besides, the “Analgesia in Hargreaves assay (paw withdrawal latencies)” value in data set [3] (aged male rats) and in data set [3] (setting [8]) was “significant analgesia” each time. Moreover, in data set [4], the “Antipyresis, LPS fever” value is “comparable antipyresis”.
